From publication PMC8735877, “Flavonoids as tyrosinase inhibitors in in silico and in vitro models: basic framework of SAR using a statistical modelling approach” (Journal of Enzyme Inhibition and Medicinal Chemistry, 2021)
Read-outs that look alike come from different tables or passages of the source.

Assays:
mushroom tyrosinase [1] = target: T1, mushroom tyrosinase (Agaricus bisporus, UniProt C7FF04); test: Tyrosinase inhibition assay (L-DOPA oxidation, absorbance at 492 nm); type: biochemical;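 also: enzyme in phosphate buffer, compounds preincubated with enzyme, inhibition computed against blank absorbance, IC50 fitted by nonlinear regression, runs in triplicate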
T1 sequence (C7FF04 1-392): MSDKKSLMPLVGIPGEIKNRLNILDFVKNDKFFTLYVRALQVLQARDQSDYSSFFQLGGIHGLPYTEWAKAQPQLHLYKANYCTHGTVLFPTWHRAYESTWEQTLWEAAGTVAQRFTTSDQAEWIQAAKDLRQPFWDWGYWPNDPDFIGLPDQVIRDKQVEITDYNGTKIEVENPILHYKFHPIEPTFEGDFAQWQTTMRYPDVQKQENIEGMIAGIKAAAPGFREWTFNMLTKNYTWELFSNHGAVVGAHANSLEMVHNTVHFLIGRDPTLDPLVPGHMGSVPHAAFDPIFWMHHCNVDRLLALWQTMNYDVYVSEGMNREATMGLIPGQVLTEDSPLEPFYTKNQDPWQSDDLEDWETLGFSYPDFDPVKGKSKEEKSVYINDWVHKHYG

mushroom tyrosinase [2] = target: T1, mushroom tyrosinase; test: Tyrosinase inhibition kinetic analysis (Lineweaver-Burk and Dixon plots); type: biochemical; conditions: for Type of inhibition: Lineweaver-Burk plots
Experimental: The enzyme reaction kinetics of these compounds were measured by constructing Lineweaver-Burk plots of inverse velocities (1/V), contrary to the inverse of substrate concentration (1/S)[22]^,[23]. Preincubations and measurement times were performed using the same protocol as described above. The enzyme concentration (250 U/mL) was kept constant in the presence of substrate solutions (L-DOPA) between 0.25 and 2 mM in all kinetic studies. The inhibitor concentrations for all test compounds were 0, 25, and 50 µM. The inhibitory types and inhibitory constant (Ki) values were described by 1/V versus inhibitor concentration plots (Dixon plot).

[3] = substrate L-DOPA, PBS pH 6.8, 25 °C, highest tested concentration 500 µM, mean ± SD, n = 3, read-out: IC50
[4] = Dixon plot, L-DOPA 0.25-2 mM, inhibitor 0, 25, 50 µM, ± SD, triplicate, read-out: Ki
[5] = L-DOPA 0.25-2 mM, inhibitor 0, 25, 50 µM

IC50 (mushroom tyrosinase [1]; [3]) [µM]	SMILES	IC50 (mushroom tyrosinase [1]) [µM]	further results
–	COc1ccc(C2CC(=O)c3c(O)cc(OC)cc3O2)cc1 (stereo not drawn) [Compound 2, 7,4′-dimethoxynaringenin]	> 500	–
–	COc1ccc([C@@H]2CC(=O)c3c(O)cc(O)cc3O2)cc1O [Compound 5, hesperetin]	237 ± 2.63	–
–	COc1ccc(C2CC(=O)c3c(O)cc(OC4OC(COC5OC(C)C(O)C(O)C5O)C(O)C(O)C4O)cc3O2)cc1O (stereo not drawn) [Compound 6, hesperetin 7-O-rutinoside]	131 ± 1.4	–
–	O=c1cc(-c2ccccc2)oc2cccc(O)c12 [Compound 7, 5-hydroxyflavone]	120 ± 1.48	–
–	COc1ccccc1-c1cc(=O)c2c(O)cccc2o1 [Compound 8, 5-hydroxy-2′-methoxyflavone]	122.1 ± 1.19	–
–	COc1cccc(OC)c1-c1cc(=O)c2c(O)cccc2o1 [Compound 9, 5-hydroxy-2′,6′-dimethoxyflavone]	127 ± 1.4	–
–	O=c1cc(-c2ccccc2)oc2cc(O)cc(O)c12 [Compound 11, chrysin]	129.4 ± 1.13	–
–	O=c1cc(-c2ccc(O)cc2)oc2cc(O)cc(O)c12 [Compound 12, apigenin]	160.5 ± 1.44	–
–	O=c1cc(-c2ccc(O)cc2)oc2cc(OC3OC(CO)C(O)C(O)C3O)cc(O)c12 (stereo not drawn) [Compound 13, apigenin 7-O-glucoside]	323.2 ± 1.48	–
–	O=c1cc(-c2ccc(O)cc2)oc2c([C@@H]3O[C@H](CO)[C@@H](O)[C@H](O)[C@H]3O)c(O)cc(O)c12 [Compound 14, apigenin 8-C-glucoside]	133 ± 1.83	–
–	COc1ccc(-c2cc(=O)c3c(O)cc(O)cc3o2)cc1 [Compound 16, acacetin]	207.9 ± 1.35	–
58.9 ± 0.78	O=c1cc(-c2ccc(O)c(O)c2)oc2cc(O)cc(O)c12 [Compound 17, luteolin]	–	Ki (mushroom tyrosinase [2]; [4]): 11.3 ± 0.77 µM; Type of inhibition (mushroom tyrosinase [2]; [5]): non-competitive
–	O=c1cc(-c2ccc(O)c(O)c2)oc2cc(OC3OC(CO)C(O)C(O)C3O)cc(O)c12 (stereo not drawn) [Compound 18, luteolin 7-O-glucoside]	415 ± 2.38	–
–	O=c1cc(-c2ccc(O)c(O)c2)oc2cc(O)c([C@@H]3O[C@H](CO)[C@@H](O)[C@H](O)[C@H]3O)c(O)c12 [Compound 20, luteolin-6-C-glucoside]	133 ± 2.32	–
> 500	COc1ccc(-c2cc(=O)c3c(O)cc(O)c(C4OC[C@@H](O)[C@H](O)[C@H]4OC4O[C@H](CO)[C@@H](O)[C@H](O)[C@H]4O)c3o2)cc1O (stereo partly drawn) [Compound 22, 5,7,3′-trihydroxy-4′-methoxyflavone-8-C-xylopyranoside-2"-O-glucoside]	–	–
290.5 ± 1.19	COc1c(O)cc(O)c2c(=O)c(O)c(-c3ccc(O)cc3)oc12 [Compound 27, 8-methoxykaempferol]	–	–

IC50 (mushroom tyrosinase [1]; [3]) [µM]	SMILES	IC50 (mushroom tyrosinase [1]) [µM]	further results
> 500	COc1cc(O)c2c(=O)c(OC)c(-c3ccc(O)cc3)oc2c1 [Compound 28, kumatakenin]	–	–
–	O=c1c(O[C@@H]2O[C@H](CO)[C@@H](O)[C@H](O)[C@H]2O)c(-c2ccc(O)cc2)oc2cc(O)cc(O)c12 [Compound 29, kaempferol 3-O-glucoside]	481.5 ± 1.73	–
270 ± 1.23	O=C(O)C1OC(Oc2c(-c3ccc(O)cc3)oc3cc(O)cc(O)c3c2=O)C(O)C(O)C1O (stereo not drawn) [Compound 30, kaempferol 3-O-glucuronide]	–	–
–	O=c1c(OC2OC(CO)C(O)C(O)C2O)c(-c2ccc(O)cc2)oc2cc(O)cc(O)c12 (stereo not drawn) [Compound 31, kaempferol 3-O-galactoside]	186.9 ± 1.09	–
–	O=C(/C=C/c1ccc(O)cc1)OC[C@H]1O[C@@H](Oc2c(-c3ccc(O)cc3)oc3cc(O)cc(O)c3c2=O)[C@H](O)[C@@H](O)[C@@H]1O [Compound 32, kaempferol 3-O-(6″-O-trans-p-coumaroyl)-glucoside]	78.5 ± 0.84	Ki (mushroom tyrosinase [2]): 9.83 ± 0.57 µM; Type of inhibition (mushroom tyrosinase [2]; [5]): competitive
231.7 ± 1.17	COc1ccc(-c2oc3cc(O)cc(O)c3c(=O)c2OC)cc1 [Compound 33, ermanin]	–	–
150 ± 1.84	COc1ccc(-c2oc3c(CC=C(C)C)c(O[C@@H]4O[C@H](CO)[C@@H](O)[C@H](O)[C@H]4O)cc(O)c3c(=O)c2O[C@@H]2O[C@@H](C)[C@H](O)[C@@H](O)[C@H]2O)cc1 [Compound 34, icariin]	–	–
–	O=c1c(O)c(-c2ccc(O)c(O)c2)oc2cc(O)cc(O)c12 [Compound 35, quercetin]	–	Type of inhibition (mushroom tyrosinase [2]; [5]): competitive
–	O=C(O)C1OC(Oc2c(-c3ccc(O)c(O)c3)oc3cc(O)cc(O)c3c2=O)C(O)C(O)C1O (stereo not drawn) [Compound 36, quercetin 3-O-glucuronide]	220.1 ± 1.14	–
–	C[C@@H]1O[C@@H](OC[C@H]2O[C@@H](Oc3c(-c4ccc(O)c(O)c4)oc4cc(O)cc(O)c4c3=O)[C@H](O)[C@@H](O)[C@@H]2O)[C@H](O)[C@H](O)[C@H]1O [Compound 37, quercetin 3-O-rutinoside]	141.7 ± 1.3	–
148 ± 1.57	CC1OC(OCC2OC(Oc3c(-c4ccc(O)c(O)c4)oc4cc(OC5OC(CO)C(O)C(O)C5O)cc(O)c4c3=O)C(O)C(O)C2O)C(O)C(O)C1O (stereo not drawn) [Compound 38, quercetin 3-O-rutinoside-7-O-glucoside]	–	–
–	O=c1c(O)c(-c2cc(O)c(O)c(O)c2)oc2cc(O)ccc12 [Compound 41, robinetin]	63.1 ± 0.85	Ki (mushroom tyrosinase [2]): 27.4 ± 0.62 µM; Type of inhibition (mushroom tyrosinase [2]; [5]): non-competitive
–	O=c1c(O)c(-c2cc(O)c(O)c(O)c2)oc2cc(O)cc(O)c12 [Compound 42, myricetin]	100 ± 1.86	–
–	O=c1c(-c2ccc(O)cc2)coc2cc(O)ccc12 [Compound 43, daidzein]	> 500	–
–	O=c1c(-c2ccc(O)cc2)coc2cc(O)cc(O)c12 [Compound 44, genistein]	> 500	–

SMILES	IC50 (mushroom tyrosinase [1]; [3]) [µM]	IC50 (mushroom tyrosinase [1]) [µM]	further results
O=C1CC(c2ccc(O)c(O)c2)Oc2c1ccc(O)c2O (stereo not drawn) [Compound 4, isookanin]	58.43 ± 0.38	–	Ki (mushroom tyrosinase [2]; [4]): 18.6 ± 0.53 µM; Type of inhibition (mushroom tyrosinase [2]; [5]): non-competitive
CC(=O)Oc1ccc(-c2cc(=O)c3c(O)cc(O)c(C4OC[C@@H](O)[C@H](O)[C@H]4OC4O[C@H](CO)[C@@H](O)[C@H](O)[C@H]4O)c3o2)cc1O (stereo partly drawn) [Compound 23, 5,7,3′-trihydroxy-4′-acetoxyflavone-8-C-xylopyranoside-2"-O-glucoside]	> 500	–	–
COc1cc(-c2cc(=O)c3c(O)cc(O)c(C4OC[C@@H](O)[C@H](O)[C@H]4OC4O[C@H](CO)[C@@H](OC(C)=O)[C@H](O)[C@H]4O)c3o2)ccc1OC(C)=O (stereo partly drawn) [Compound 25, 5,7-dihydroxy-3′-methoxy-4′-acetoxyflavone-8-C-xylopyranoside-2"-O-(4′"-acetoxy)-glucoside]	> 500	–	–
O=c1c(O)c(-c2ccc(O)cc2)oc2cc(O)cc(O)c12 [Compound 26, kaempferol]	65.1 ± 1.09	–	Ki (mushroom tyrosinase [2]; [4]): 40.2 ± 0.46 µM; Type of inhibition (mushroom tyrosinase [2]; [5]): competitive
